Series [1] concerns DENV-2. Nature of the series: microbe, parasite or virus in culture. The following applies: Dengue virus, DENV2, Huh-7.
Series [2] in a line: Bone marrow progenitor cell assay, erythroid (E). The conditions noted are these: human, erythroid (E) human bone marrow progenitor cells.
Series [3] relates to flaviviruses.
Series [4] has as its system Influenza A and B. Nature of the series: Antiviral specificity panel, Influenza A and B. In kind it is cell-based. The following applies: Influenza A virus; RNA virus, MDCK.
Series [5] has as its system Dengue serotype 2. Nature of the series: In vitro antiviral potency, summary over strains, Dengue serotype 2. It counts as cell-based. The following applies: Dengue virus.
For series [6], the system named is Respiratory syncytial virus. Nature of the series: Antiviral specificity panel, RSV. In kind it is cell-based. The conditions noted are these: human respiratory syncytial virus, HEp-2; RNA virus, HEp2.
In series [7] the test system is DENV-4. The experiment in a line: microbe, parasite or virus in culture. The following applies: Dengue virus, DENV4, Huh-7.
Series [8] has as its system Dengue serotype 3. Nature of the series: In vitro antiviral potency, summary over strains, Dengue serotype 3. In kind it is cell-based. The conditions noted are these: Dengue virus.
The test system of series [9] is Japanese encephalitis. Nature of the series: Neutral red assay of virus-induced CPE, JEV. In kind it is cell-based. The conditions noted are these: SA-14, Huh-7, neutral red assay.
Series [10] concerns DENV-3. Nature of the series: microbe, parasite or virus in culture. The following applies: Dengue virus, DENV3, Huh-7.
A short description of series [11]: in vitro. The following applies: hamster.
Series [12] has as its system Dengue serotype 4. Nature of the series: In vitro antiviral potency, summary over strains, Dengue serotype 4. It counts as cell-based. The conditions noted are these: Dengue virus.
The nature of series [13]: Cytotoxicity in HEp2 cells. It counts as cell-based. The conditions noted are these: human, Table 2, HEp2. The protocol: To assess the antiviral specificity of Compound 1 (AT-281), serial dilutions were incubated with various host cell lines infected with a panel of DNA and RNA viruses other than flaviviruses. The activity of Compound 1 (AT-281) was measured in infected cells using the neutral red assay to determine the effective concentration required to inhibit viral replication 50% (EC50) (described in Example 3) and the threshold concentration required to obtain a perceptible effect on 50% of the cells incubated without virus (CC50). Compound 1 (AT-281) had no activity against the DNA viruses tested and was only weakly or not active against several RNA viruses (Table 2).

Series [14] deals with T1, DENV1 NS5 (Dengue virus type 1, UniProt P17763). Nature of the series: Thermal shift assay, DENV1 NS5. The following applies: read-out: ΔTM.
Series [15] relates to DENV3 RdRp domain. The experiment in a line: Thermal shift assay, DENV3 RdRp domain. The following applies: RdRp domain DENV3, 100 μM compound.
In series [16] the test system is DENV1 RdRp domain. The experiment in a line: Thermal shift assay, DENV1 RdRp domain. The following applies: RdRp domain DENV1, 100 μM compound.
Series [17] concerns the target T2, DENV4 NS5 (Dengue virus type 4, UniProt P09866). Nature of the series: Thermal shift assay, DENV4 NS5. The conditions noted are these: read-out: ΔTM.
Series [18] has as its target DENV2 NS5 (Dengue virus type 2, UniProt P14340). The experiment in a line: Thermal shift assay, DENV2 NS5. The conditions noted are these: read-out: ΔTM.
Series [19] addresses human cellular DNA-dependent DNA polymerase γ (Homo sapiens, UniProt P54098). The following applies: previously shown (Good et al.); read-out: estimated IC50; cited from earlier work.
For series [20], the target named is DENV3 NS5 (Dengue virus type 3, UniProt Q6YMS4). Nature of the series: Thermal shift assay, DENV3 NS5. The following applies: read-out: ΔTM.
The target in series [21] is T1, DENV1 NS5. The experiment in a line: Nucleotide analogue incorporation / discrimination assay, DENV1 NS5. It counts as biochemical. The following applies: GTP for AT-9010 and AT-9002, UTP for SOF-TP. The procedure:
(§1) The chain-terminating efficiency of Compound 5 was measured in competitive nucleotide incorporation assays using all four DENV serotypes. […] In comparison, sofosbuvir triphosphate is incorporated into the RNA less than 1 time for every 100 UTP (native uridine triphosphate) incorporations.
(§2) Measurements and quantitations were as in FIG. 19B.
(§3) DENV NS5 was pre-incubated with the annealed P10/T20 RNA in an assembly buffer containing 20 mM HEPES pH 7.5, 10% glycerol, 5 mM MgCl2, and 5 mM DTT for 10 min at 30° C. to create an active RNA elongation complex.
(§4) Reactions were started by adding AT-9010 with either all four NTPs or UTP, ATP, and CTP only.
(§5) Single nucleotide incorporation was tested as follows. Reactions were started by adding the corresponding NTP or analogue. Final concentrations were 1 μM NS5, 0.25 μM P10/T20, 100 μM NTP or analogue in a final buffer containing 20 mM HEPES pH 7.5, 15% glycerol, 5 mM MgCl2, and 5 mM DTT.
(§6) Reactions were quenched at the designated time points in 3× volume FBD stop solution (formamide, 10 mM EDTA) and analyzed on 20% acrylamide-bisacrylamide (19:1) […] sequencing gels. RNA products were visualized using a Typhoon FluorImager then analyzed and quantified using ImageQuant software.

Series [22] concerns the target T2, DENV4 NS5. The experiment in a line: Nucleotide analogue incorporation / discrimination assay, DENV4 NS5. It counts as biochemical. The following applies: GTP for AT-9010 and AT-9002, UTP for SOF-TP. The protocol:
as §1
The nature of regular inserted Watson-Crick nucleotides is indicated in the right of the gel. […] Quantification of band-products greater in size than the G/AT (+5) band relative to the G/AT (+5) band were measured using a Typhoon FluorImager, and allowed to calculate the discrimination value. The incorporation rates for […] and AT9002 are compared to that of GTP, and to that of UTP in the case of SOF-TP.
as §2, §3, §4, §5, §6

Series [23] concerns the target DENV2 RdRp domain (Dengue virus type 2, UniProt P14340). Nature of the series: Thermal shift assay, DENV2 RdRp domain. The following applies: read-out: ΔTM.
In series [24] the target is DENV2 MTase domain (Dengue virus type 2, UniProt P14340). Nature of the series: Thermal shift assay, DENV2 MTase domain. The conditions noted are these: read-out: ΔTM.
For series [25] the following is noted: 10 μM Compound 1 for 6 h, peak at 10 h after initiation of exposure.

The values that follow come from patent US20250082656A1, “DOSAGE REGIMENS FOR TREATMENT OF DENGUE INFECTION” (Atea Pharmaceuticals, Inc., priority 2022, published 2025).

One may read the EC50 as the concentration giving half of the maximal effect. Low readings indicate greater potency, high ones weaker potency. By ΔTm is commonly meant the change in melting temperature against a reference sample. As usually defined, the IC50 is the midpoint of a concentration-inhibition curve.

The structures appear in SMILES notation. Bounds are passed on as bounds.

T2 sequence (P09866 2488-3387): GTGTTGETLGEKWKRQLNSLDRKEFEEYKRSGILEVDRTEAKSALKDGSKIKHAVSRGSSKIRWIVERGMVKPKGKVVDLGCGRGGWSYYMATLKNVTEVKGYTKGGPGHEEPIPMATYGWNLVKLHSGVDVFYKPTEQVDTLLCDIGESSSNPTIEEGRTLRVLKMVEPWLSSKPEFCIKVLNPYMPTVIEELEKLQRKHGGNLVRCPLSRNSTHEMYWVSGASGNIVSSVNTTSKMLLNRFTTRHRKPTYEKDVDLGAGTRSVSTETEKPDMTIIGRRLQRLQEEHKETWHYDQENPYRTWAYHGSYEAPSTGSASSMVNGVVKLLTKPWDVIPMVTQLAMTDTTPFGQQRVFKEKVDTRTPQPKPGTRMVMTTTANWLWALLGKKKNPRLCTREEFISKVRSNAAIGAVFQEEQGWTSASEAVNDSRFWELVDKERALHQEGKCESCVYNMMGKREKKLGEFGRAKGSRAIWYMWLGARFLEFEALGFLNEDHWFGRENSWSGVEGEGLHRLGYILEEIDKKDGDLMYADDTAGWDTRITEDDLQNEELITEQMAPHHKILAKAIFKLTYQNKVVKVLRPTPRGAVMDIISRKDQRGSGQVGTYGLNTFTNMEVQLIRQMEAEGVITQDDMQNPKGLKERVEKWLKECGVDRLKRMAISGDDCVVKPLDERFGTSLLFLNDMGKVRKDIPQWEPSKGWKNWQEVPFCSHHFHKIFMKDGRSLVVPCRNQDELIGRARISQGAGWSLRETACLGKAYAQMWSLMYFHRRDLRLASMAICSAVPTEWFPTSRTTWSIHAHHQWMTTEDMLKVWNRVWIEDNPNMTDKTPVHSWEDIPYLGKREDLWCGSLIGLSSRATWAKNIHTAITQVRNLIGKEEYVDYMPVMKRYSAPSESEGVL
T1 sequence (P17763 2494-3392): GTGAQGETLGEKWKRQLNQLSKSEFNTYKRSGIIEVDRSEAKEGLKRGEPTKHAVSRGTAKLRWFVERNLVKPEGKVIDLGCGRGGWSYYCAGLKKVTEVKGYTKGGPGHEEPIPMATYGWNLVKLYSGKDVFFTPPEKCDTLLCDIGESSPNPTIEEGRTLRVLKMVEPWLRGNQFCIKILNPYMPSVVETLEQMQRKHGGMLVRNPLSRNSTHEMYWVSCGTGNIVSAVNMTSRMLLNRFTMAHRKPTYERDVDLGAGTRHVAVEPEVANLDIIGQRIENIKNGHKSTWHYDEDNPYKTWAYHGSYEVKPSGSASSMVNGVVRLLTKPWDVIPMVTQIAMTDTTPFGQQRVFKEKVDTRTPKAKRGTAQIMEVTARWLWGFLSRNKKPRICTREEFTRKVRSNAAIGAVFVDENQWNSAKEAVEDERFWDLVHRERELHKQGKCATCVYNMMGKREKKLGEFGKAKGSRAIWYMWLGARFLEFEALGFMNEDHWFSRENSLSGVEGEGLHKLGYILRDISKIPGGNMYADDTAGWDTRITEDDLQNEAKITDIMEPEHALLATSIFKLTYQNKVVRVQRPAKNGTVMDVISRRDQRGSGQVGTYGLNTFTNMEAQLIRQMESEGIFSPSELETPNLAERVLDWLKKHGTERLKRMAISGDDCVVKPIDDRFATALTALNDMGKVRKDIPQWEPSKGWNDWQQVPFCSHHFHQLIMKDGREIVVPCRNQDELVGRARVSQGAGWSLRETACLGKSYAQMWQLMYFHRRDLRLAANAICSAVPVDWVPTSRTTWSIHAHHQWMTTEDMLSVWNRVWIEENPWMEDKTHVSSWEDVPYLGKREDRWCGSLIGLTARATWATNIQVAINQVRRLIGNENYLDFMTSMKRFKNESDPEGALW
Sequence of DENV3 NS5 (Q6YMS4 2491-3390): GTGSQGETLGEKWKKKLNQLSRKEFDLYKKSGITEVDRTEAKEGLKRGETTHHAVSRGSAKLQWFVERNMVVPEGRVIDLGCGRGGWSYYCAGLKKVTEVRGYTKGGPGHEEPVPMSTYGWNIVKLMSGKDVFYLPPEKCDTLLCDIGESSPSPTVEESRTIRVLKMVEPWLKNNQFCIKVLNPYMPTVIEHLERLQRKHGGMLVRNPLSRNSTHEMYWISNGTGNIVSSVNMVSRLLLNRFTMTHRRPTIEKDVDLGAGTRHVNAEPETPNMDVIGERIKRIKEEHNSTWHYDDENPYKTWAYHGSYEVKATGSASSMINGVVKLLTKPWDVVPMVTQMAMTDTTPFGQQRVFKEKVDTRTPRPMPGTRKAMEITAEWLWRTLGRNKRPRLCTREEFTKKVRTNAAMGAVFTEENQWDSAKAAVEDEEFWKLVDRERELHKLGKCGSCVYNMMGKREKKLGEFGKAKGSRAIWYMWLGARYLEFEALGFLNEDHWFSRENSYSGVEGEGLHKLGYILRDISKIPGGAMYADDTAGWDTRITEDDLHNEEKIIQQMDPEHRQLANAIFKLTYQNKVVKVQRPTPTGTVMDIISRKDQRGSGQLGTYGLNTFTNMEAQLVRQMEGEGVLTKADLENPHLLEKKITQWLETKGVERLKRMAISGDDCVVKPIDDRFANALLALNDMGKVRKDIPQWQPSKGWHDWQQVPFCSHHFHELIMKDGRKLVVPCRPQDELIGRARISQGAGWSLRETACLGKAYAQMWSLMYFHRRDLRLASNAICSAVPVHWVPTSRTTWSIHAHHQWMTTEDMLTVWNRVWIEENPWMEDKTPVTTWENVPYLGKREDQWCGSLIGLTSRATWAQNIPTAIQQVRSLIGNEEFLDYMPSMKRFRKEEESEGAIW
Sequence of human cellular DNA-dependent DNA polymerase γ (P54098 whole entry): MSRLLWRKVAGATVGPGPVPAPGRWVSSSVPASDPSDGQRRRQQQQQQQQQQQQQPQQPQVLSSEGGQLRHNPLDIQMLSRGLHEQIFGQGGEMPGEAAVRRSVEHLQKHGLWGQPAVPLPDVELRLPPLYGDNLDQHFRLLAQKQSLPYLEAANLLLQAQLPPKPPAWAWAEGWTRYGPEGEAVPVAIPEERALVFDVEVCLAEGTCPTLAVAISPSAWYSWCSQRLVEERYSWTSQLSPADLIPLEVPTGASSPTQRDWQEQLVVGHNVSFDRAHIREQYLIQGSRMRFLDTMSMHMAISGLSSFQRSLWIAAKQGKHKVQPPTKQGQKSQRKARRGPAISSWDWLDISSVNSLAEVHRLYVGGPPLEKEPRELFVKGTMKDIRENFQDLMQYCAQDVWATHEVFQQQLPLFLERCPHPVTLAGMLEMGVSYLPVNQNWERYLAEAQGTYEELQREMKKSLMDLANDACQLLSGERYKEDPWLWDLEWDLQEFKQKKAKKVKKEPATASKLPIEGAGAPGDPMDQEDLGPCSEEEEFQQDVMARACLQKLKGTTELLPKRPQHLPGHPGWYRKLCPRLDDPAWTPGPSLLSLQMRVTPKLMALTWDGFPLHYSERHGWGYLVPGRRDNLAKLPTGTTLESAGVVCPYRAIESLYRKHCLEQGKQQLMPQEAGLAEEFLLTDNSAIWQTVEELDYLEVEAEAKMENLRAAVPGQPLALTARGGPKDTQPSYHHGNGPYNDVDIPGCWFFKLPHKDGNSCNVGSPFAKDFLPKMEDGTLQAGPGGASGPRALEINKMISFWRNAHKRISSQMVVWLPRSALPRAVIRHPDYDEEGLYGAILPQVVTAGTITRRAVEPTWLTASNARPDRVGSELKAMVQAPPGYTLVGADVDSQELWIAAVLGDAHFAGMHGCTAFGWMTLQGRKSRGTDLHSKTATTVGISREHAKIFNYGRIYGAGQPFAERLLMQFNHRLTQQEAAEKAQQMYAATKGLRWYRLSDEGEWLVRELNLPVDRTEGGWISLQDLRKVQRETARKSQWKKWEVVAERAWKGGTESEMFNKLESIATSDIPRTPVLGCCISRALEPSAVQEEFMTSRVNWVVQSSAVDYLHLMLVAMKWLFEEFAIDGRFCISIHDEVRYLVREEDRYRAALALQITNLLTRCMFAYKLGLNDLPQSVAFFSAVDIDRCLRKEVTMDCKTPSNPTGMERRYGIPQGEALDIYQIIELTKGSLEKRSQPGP

Consider `CNc1nc(N)nc2c1ncn2[C@@H]1O[C@H](CO[P@](=O)(N[C@@H](C)C(=O)OC(C)C)Oc2ccccc2)[C@@H](O)[C@@]1(C)F` [Compound 1, isopropyl ((R)-(((2R,3R,4R,5R)-5-(2-amino-6-(methylamino)-9H-purin-9-yl)-4-fluoro-3-hydroxy-4-methyltetrahydrofuran-2-yl)methoxy)(phenoxy)phosphoryl)-L-alaninate], for which the 50% effective concentration (EC50) in [1] was 300 nM; in series [4] it was greater than 100000 nM; in series [5], less than 7000 nM; in series [6], greater than 100000 nM; in series [7], 570 nM; in [8], less than 1500 nM. Further, the EC50 in [9] is 210 nM; in series [10], 750 nM; in series [12], less than 1200 nM. Moreover, in [2], the CC50 at 14 days was greater than 100000 nM. In series [3] (DENV-2 NGC Huh-7, DENV2 clinical isolate PBMC and BHK-21, DENV-3 H87 Huh-7, in each case), this molecule showed an SI greater than 210. The CC50 in series [3] (read-out: CC50 (concentration required to kill 50% of cells exposed to drug only), exceeded the highest concentration tested) was 85000 to 170000 nM; in series [11] it was greater than 170000 nM; in series [13], greater than 100000 nM.

Take `C[C@@]1(F)[C@H](O)[C@@H](COP(=O)(O)OP(=O)(O)OP(=O)(O)O)O[C@H]1n1cnc2c(=O)[nH]c(N)nc21` [Compound 5]: the ΔTm at 100 µM in [14] was found to be 6.1 ± 0.1 °C; in series [17] it was 4.8 ± 0.1 °C; in [18], 6 ± 0.1 °C; in series [20] it was 5 ± 0.1 °C; in series [23], 3.8 ± 0.1 °C; in series [24] it was 4 ± 0.1 °C. The ΔTM was 3.2 ± 0.1 °C in [15] and 5.6±0.1 °C in series [16]. In series [19], the IC50 is greater than 100000 nM. The “Preference (discrimination) native nucleotide > analogue” value was 7.7 ± 0.5 in series [21] and 11.2 ± 0.7 in series [22]. The “mean peak concentration of AT-9010 in PBMCs” value in series [25] turned out to be 1.88±0.01 pmol/10^6 cells.
